# Source: US10570149B2, “Tricyclic heterocylic derivatives” (MERCK PATENT GMBH, priority 2016, dated 2020)
# Columns and labels:
# [1] = system: phosphorylation of Chk1 (Ser 345) in HT29 colon adenocarcinoma cells; assay: pCHK1 cellular assay; type: cell-based; conditions: Homo sapiens
# Text: Chk1 kinase acts downstream of ATR and has a key role in DNA damage checkpoint control. Activation of Chk1 involves phosphorylation of Ser317 and Ser345 (regarded as the preferential target for phosphorylation/activation by ATR) and occurs in response to blocked DNA replication and certain forms of genotoxic stress. Phosphorylation at Ser 345 serves to localize Chk1 to the nucleus following checkpoint activation.
# This assay measures a decrease in phosphorylation of Chk1 (Ser 345) in HT29 colon adenocarcinoma cells following treatment with compound and hydroxyurea (which promotes fork stalling because of dNTP depletion) and using an immunocytochemical procedure and high content imaging.
# For the assay HT29 cells are plated in culture medium (DMEM high Glucose (no phenol red), 2 mM Glutamax, 1 mM Pyruvate, 10% FCS into Greiner 384 well plates, black, μclear #781090 (2500 cells/well/30 μl) and incubated for at least 20 hours at 37° C., 10% CO2 and 90% rH. Diluted test compounds (1 nM-30 μM final) and hydroxyurea (3 mM final) are added simultaneously and cells are incubated for 4 h at 37° C. After fixation/prmeabilisation with 100% MeOH (−20° C. cold) and permeabilisation with 0.2% Triton X-100 a complete immunocytochemical procedure is performed using a specific anti-pChk1 antibody (Cell Signaling, #2348BF) and fluorescently labelled secondary antibody (Alexa Fluor® 488 goat anti-rabbit F(ab′)2 fragment, Invitrogen A11070) and parallel nuclear staining for cell counting.
# The nuclear localised pChk1 signal is detected on an ImageXpress Ultra confocal high content reader and reported as % positive cells (nuclei).
# [2] = target: T1, Kv11.1 (hERG) ion channel (Homo sapiens, UniProt Q12809); assay: Kv11.1 (hERG) ion channel activity, whole cell patch clamp; type: cell-based; conditions: for Ki: Table 3, HEK293 hERG patch clamp
# T1 construct: expressed in transfected cells; host or cells: HEK293
# T1 sequence (Q12809 whole entry): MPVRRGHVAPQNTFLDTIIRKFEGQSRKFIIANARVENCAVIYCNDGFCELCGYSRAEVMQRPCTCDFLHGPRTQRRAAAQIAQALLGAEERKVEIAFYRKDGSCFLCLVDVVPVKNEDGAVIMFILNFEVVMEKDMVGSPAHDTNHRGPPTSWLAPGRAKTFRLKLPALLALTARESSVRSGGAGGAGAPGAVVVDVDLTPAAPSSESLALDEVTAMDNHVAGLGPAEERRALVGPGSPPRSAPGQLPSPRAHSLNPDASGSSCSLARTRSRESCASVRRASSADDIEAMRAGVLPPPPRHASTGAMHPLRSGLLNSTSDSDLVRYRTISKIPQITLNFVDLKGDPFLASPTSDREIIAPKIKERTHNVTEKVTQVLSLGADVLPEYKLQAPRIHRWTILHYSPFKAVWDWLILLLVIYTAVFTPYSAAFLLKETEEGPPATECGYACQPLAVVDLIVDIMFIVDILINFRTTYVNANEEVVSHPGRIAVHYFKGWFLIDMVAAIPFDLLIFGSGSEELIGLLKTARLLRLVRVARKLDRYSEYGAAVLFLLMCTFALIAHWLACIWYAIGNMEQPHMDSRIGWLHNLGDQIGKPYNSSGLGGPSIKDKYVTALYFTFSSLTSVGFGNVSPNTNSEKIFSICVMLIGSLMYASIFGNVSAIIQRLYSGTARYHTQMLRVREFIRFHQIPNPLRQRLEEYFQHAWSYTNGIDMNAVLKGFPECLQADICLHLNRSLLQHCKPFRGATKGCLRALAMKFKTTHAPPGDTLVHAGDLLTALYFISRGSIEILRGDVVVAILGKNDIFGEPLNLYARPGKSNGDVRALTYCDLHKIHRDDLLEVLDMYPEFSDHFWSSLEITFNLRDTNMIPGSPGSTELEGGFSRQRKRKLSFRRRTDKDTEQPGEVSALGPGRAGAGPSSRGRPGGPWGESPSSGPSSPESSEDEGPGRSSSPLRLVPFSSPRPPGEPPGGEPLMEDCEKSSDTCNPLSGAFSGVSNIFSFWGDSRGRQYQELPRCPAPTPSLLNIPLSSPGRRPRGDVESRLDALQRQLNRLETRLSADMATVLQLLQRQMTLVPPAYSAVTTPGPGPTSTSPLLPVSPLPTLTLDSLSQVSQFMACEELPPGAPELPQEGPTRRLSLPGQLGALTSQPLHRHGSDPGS
# Experimental: Kv11.1 (hERG) Ion Channel Activity
# In this assay, a potential in vitro effect of test compounds on the Kv11.1 (hERG) ion channel current is investigated which mediates the rapidly activating, delayed rectifier cardiac potassium current (IKr). The assay is performed with a stable Kv11.1 (hERG) transfected human embryonic kidney cell line (HEK293) by whole cell patch clamp technique carried out at room temperature.
# The Kv11.1 (hERG) ion channel blocker quinidine is used as reference compound. The effects of the test compounds and quinidine are normalized to the corresponding vehicle control. The whole cell recordings are carried out with an automated patch clamp device Patchliner™, Nanion Technologies, Munich). Hereby the Patch Clamp measurements run on silicate-coated chips with a hole of a defined diameter. Solutions, cell suspension and compounds are applied by a Teflon-laminated pipette needle through microfluidic silicate-laminated channels. Commercial patch clamp amplifiers (EPC10, HEKA Elektronik Dr. Schulze GmbH, Germany) are used for the patch clamp recordings. HEK293 cells stably expressing the hERG gene are held at −80 mV. Steady-state inhibition of Kv11.1 (hERG) potassium current due to test/reference compound application is measured using a pulse pattern with fixed amplitudes: 51 ms/−80 mV, 500 ms/+40 mV, 500 ms/−40 mV, 200 ms/−80 mV. The hERG-specific voltage protocol is repeated at 10 s intervals. The leak current is subtracted by a P4 leak subtraction. Cells are resuspended in extracellular patch clamp solution (EC) and applied into the chip. After trapping the cell, the EC is exchanged by seal enhancer solution (SE) to improve the sealing procedure. When the whole cell configuration is attained, seal enhancer is washed out by the application of EC. The recording is started in EC for 1.5 min. Afterwards DMSO (vehicle control, 0.1% DMSO) is applied and the control current is measured for 3 min. Following control steady-state current, test compound is applied twice at the same concentration and the tail current is measured for 3.5 min each. For the determination of a concentration-relationship, the test compound is applied as a cumulative concentration-response curve and each concentration is measured for 5 min. The reference compound quinidine is treated in the same way. The effect on Kv11.1 (hERG) ion channel activity is judged from the tail current amplitude monitored at −40 mV (current of interest, COI). Results are calculated from the last recorded current traces. Changes in Kv11.1 (hERG) ion channel activity between control value, defined as 100% Kv11.1 (hERG) ion channel activity, application of test compound and application of quinidine is reported as percent change of control value of COI. An aliquot of test compound is collected for concentration verification during the recording. The sample is immediately measured by HPLC and the final compound concentration within the assay is calculated according to a calibration curve.
# [3] = target: T2, ATR/ATRIP (Homo sapiens, UniProt Q13535); assay: ATR/ATRIP kinase assay (TR-FRET, p53 phosphorylation); type: biochemical; conditions: Table 1, class symbols; read-out: ATR-ATRIP IC50
# T2 construct: human ATR, full length, GenBank ID: NM_001184.3; p53: Sf21 insect cells
# T2 sequence (Q13535 whole entry): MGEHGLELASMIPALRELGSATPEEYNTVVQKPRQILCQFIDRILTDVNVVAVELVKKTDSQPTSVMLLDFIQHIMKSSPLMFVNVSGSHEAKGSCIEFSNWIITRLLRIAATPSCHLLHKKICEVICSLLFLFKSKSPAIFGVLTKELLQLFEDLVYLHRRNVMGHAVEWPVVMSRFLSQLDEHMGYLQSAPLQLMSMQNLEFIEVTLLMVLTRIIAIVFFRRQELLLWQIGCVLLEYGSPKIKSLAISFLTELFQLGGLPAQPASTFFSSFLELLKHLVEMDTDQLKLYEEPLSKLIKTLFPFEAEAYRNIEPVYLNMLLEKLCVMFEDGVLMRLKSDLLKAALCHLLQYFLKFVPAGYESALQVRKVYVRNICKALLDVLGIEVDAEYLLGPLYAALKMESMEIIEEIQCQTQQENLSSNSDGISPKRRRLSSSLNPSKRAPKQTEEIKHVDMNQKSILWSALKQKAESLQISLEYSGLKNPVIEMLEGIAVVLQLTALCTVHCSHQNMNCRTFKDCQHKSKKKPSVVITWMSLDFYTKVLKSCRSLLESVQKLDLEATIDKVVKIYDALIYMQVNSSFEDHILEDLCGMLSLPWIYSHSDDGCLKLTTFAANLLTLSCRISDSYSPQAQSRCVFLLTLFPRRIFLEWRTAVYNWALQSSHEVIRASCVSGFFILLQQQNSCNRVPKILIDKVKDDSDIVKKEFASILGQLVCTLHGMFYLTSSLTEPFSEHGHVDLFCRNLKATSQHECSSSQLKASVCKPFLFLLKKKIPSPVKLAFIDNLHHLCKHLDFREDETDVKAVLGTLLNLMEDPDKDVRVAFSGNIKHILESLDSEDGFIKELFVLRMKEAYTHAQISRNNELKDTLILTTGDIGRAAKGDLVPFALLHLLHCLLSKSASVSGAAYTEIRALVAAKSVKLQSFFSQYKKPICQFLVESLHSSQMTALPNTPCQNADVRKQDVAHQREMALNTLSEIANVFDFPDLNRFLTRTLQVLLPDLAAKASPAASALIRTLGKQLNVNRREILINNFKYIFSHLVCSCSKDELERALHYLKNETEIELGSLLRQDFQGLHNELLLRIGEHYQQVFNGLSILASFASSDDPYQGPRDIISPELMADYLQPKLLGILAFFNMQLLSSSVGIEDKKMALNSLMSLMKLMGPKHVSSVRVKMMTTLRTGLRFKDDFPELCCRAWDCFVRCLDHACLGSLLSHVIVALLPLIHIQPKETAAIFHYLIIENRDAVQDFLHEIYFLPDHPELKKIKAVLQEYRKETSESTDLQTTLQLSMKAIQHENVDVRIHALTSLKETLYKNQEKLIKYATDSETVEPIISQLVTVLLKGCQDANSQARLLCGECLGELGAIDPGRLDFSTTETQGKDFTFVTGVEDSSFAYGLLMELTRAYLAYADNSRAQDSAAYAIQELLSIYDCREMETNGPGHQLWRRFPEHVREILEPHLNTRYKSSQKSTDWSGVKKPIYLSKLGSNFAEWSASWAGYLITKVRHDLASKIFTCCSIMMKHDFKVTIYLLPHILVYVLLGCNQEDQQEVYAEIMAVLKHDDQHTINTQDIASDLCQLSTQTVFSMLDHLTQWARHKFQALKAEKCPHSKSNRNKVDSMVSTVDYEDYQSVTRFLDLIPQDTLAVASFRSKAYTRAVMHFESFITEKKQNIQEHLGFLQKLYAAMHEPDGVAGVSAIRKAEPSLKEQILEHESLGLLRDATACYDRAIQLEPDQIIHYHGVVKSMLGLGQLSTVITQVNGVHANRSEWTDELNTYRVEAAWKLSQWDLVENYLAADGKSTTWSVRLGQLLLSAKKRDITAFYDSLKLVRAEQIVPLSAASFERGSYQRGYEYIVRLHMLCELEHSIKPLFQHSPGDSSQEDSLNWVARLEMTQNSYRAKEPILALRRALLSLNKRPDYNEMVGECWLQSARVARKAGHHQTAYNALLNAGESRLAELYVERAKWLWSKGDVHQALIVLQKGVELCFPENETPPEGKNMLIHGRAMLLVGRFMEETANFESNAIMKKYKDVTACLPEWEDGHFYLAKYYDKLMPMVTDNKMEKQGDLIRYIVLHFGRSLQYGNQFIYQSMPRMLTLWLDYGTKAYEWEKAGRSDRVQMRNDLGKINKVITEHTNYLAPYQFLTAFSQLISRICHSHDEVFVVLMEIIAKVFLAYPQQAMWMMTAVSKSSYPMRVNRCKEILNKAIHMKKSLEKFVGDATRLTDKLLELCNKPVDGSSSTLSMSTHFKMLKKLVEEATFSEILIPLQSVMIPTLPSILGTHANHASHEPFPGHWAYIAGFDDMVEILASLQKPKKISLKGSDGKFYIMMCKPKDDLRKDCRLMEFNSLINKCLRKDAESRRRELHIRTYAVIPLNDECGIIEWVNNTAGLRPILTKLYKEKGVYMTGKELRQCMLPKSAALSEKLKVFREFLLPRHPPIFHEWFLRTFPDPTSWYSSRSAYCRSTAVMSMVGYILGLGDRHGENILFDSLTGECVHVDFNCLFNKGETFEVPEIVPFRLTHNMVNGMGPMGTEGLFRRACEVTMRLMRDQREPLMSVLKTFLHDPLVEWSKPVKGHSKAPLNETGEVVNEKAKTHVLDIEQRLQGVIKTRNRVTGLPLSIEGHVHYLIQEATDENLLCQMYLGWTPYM
# T2 sequence (Q8WXE1 whole entry partner): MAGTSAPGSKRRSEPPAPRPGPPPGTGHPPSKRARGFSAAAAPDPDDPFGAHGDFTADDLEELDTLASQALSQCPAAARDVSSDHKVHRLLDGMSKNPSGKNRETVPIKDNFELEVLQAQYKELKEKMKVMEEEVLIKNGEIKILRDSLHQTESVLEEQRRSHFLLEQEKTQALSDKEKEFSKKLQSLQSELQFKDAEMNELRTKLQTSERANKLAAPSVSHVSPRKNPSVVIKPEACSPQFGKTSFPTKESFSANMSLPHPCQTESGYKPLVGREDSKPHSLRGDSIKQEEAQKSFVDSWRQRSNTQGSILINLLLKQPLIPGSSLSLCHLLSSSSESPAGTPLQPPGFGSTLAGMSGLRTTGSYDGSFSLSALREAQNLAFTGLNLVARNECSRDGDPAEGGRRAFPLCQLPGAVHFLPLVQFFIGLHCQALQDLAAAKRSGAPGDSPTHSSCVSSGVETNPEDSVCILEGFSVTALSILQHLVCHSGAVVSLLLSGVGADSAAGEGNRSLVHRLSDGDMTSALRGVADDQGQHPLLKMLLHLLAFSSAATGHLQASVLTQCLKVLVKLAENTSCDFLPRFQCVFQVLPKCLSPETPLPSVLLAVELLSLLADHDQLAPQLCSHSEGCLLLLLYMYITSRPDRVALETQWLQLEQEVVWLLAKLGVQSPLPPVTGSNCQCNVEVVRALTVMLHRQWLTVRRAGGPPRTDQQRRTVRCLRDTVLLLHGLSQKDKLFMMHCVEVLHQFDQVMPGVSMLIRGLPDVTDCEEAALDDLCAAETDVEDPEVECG
# [4] = HT-29, Table 1, class symbols, hydroxyurea
"IC50 [1, 4] [nM]","IC50 ([1]; HT-29, Table 3, hydroxyurea) [nM]",IC50 [3] [nM],Compound,hERG % effect @ conc ([2]; @ 30 μM),Ki [2] [nM],hERG % effect @ conc ([2]; @ 10 μM)
10 to 100,20,< 1,"C[C@@H]1COC[C@H]2COc3c(nc(-c4ccnc5[nH]ccc45)nc3C(C)(C)S(C)(=O)=O)N21 [A13, (6R,8aS)-1-(1-Methanesulfonyl-1-methyl-ethyl)-5-methyl-3-(1H-pyrrolo[2,3-b]pyridin-4-yl)-5,6,8a,9-tetrahydro-8H-7,10-dioxa-2,4,4b-triaza-phenanthrene]",–,6500,(−55% effect @ 10 μM)
10 to 100,36,< 1,"C[C@@H]1COC[C@H]2COc3c(nc(-c4c(N)cnc5[nH]ccc45)nc3C(C)(C)S(C)(=O)=O)N21 [A20, 4-[(4bR,8S)-1-(1-Methanesulfonyl-1-methyl-ethyl)-5-methyl-5,6,8a,9-tetrahydro-8H-7,10-dioxa-2,4,4b-triaza-phenanthren-3-yl]-1H-pyrrolo[2,3-b]pyridin-5-ylamine]",–,> 10000,(−19% effect @ 10 μM)

Compound,"IC50 [1, 4] [nM]","IC50 ([1]; HT-29, Table 3, hydroxyurea) [nM]",IC50 [3] [nM],hERG % effect @ conc ([2]; @ 30 μM),Ki [2] [nM],hERG % effect @ conc ([2]; @ 10 μM)
"CNc1cnc2[nH]ccc2c1-c1nc2c(c(C(C)(C)S(C)(=O)=O)n1)OC[C@@H]1COC[C@@H](C)N21 [A1, {4-[(S)-1-(1-Methanesulfonyl-1-methyl-ethyl)-5-(R)-methyl-5,6,8a,9-tetrahydro-8H-7,10-dioxa-2,4,4b-triaza-phenanthren-3-yl]-1H-pyrrolo[2,3-b]pyridin-5-yl}-methyl-amine]",< 10,6.2,< 1,(−50% @ 30 μM),> 30000,–
